Laboratory results published in patent US9029377B2, “Platelet-activating factor receptor antagonists” (Merck Sharp & Dohme Corp., priority 2009, dated 2015).

Molecular target: PAFR (Homo sapiens, UniProt P25105)
Assay: PAF Binding Assay (PAFR binding)

Sequence of PAFR (P25105 whole entry): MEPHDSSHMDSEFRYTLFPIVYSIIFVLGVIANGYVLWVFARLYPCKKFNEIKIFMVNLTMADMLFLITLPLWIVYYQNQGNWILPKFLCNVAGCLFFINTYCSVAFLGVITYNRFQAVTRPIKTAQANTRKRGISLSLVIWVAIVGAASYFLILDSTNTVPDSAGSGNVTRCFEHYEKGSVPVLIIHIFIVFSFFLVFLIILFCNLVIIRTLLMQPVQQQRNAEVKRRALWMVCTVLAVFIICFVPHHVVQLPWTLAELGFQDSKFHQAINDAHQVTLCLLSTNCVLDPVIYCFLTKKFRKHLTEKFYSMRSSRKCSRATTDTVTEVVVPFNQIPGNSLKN

Molecule	IC50
CCc1cc(-c2ccc(OC(F)(F)F)cc2)ccc1S(=O)(=O)N[C@H]1CCC[C@@H](n2cnnc2C)C1 [Compound 2Abd, 3-ethyl-N-[(1S,3R)-3-(3-methyl-4H-1,2,4-triazol-4-yl)cyclohexyl]-4′-(trifluoromethoxy)biphenyl-4-sulfonamide]	2.2 nM
CCCCOc1ccc(S(=O)(=O)N[C@H]2CCC[C@@H](n3cnnc3C)C2)c(F)c1 [Compound 2Ji, 4-butoxy-2-fluoro-N-[(1S,3R)-3-(3-methyl-4H-1,2,4-triazol-4-yl)cyclohexyl]benzenesulfonamide]	4 nM
Cc1nncn1[C@H]1C[C@@H](NS(=O)(=O)c2ccc(-c3noc(C4CC4)n3)cc2)CC(F)(F)C1 [Compound 2Ql, 4-(5-cyclopropyl-1,2,4-oxadiazol-3-yl)-N-[(1R,5S)-3,3-difluoro-5-(3-methyl-4H-1,2,4-triazol-4-yl)cyclohexyl]benzenesulfonamide]	8.2 nM
CCc1ccc(S(=O)(=O)N[C@H]2CCC[C@@H](n3cnnc3)C2)cc1-c1ccccc1 [Compound 2Mm, 6-ethyl-N-[(1S,3R)-3-(4H-1,2,4-triazol-4-yl)cyclohexyl]biphenyl-3-sulfonamide]	26 nM
O=S(=O)(N[C@H]1CCC[C@@H](n2cnnc2)C1)c1cc(-c2ccc3nc(C(F)(F)F)nn3n2)cc(C(F)(F)F)c1 [Compound 3Aah, N-[(1S,3R)-3-(4H-1,2,4-triazol-4-yl)cyclohexyl]-3-(trifluoromethyl)-5-[2-(trifluoromethyl)[1,2,4]triazolo[1,5-b]pyridazin-6-yl]benzenesulfonamide]	18 nM
CCc1cc(-c2noc(C3CC3)n2)ccc1S(=O)(=O)N[C@@H]1C[C@H](n2cnnc2C)CC(F)(F)C1 [Compound 2Cbb, 4-(5-cyclopropyl-1,2,4-oxadiazol-3-yl)-N-[(1R,5S)-3,3-difluoro-5-(3-methyl-4H-1,2,4-triazol-4-yl)cyclohexyl]-2-ethylbenzenesulfonamide]	0.8 nM
CCc1cc(-c2nccs2)ccc1S(=O)(=O)N[C@H]1CCC[C@@H](n2cnnc2)C1 [Compound 2Aaw, 2-ethyl-4-(1,3-thiazol-2-yl)-N-[(1S,3R)-3-(4H-1,2,4-triazol-4-yl)cyclohexyl]benzenesulfonamide]	45 nM
3-(2-aminopyrimidin-4-yl)-N-[(1R,5S)-3,3-difluoro-5-(3-methyl-4H-1,2,4-triazol-4-yl)cyclohexyl]-5-(trifluoromethyl)benzenesulfonamide [Compound 9Ab]	15 nM
3-ethyl-5-imidazo[1,2-a]pyridin-8-yl-N-[(1S,3R)-3-(4H-1,2,4-triazol-4-yl)cyclohexyl]-5-(trifluoromethyl)benzenesulfonamide [Compound 3Bau]	0.8 nM
Cc1nncn1[C@@H]1CCC[C@H](NS(=O)(=O)c2ccc(-c3noc(C4CC4)n3)cc2)C1 [Compound 2Nl, 4-(5-cyclopropyl-1,2,4-oxadiazol-3-yl)-N-[(1S,3R)-3-(3-methyl-4H-1,2,4-triazol-4-yl)cyclohexyl]benzenesulfonamide]	9.6 nM
Cc1nncn1[C@H]1C[C@@H](NS(=O)(=O)c2ccc(-c3ccc(OC(F)(F)F)cc3)c(F)c2)CC(F)(F)C1 [Compound 2Ha, N-[(1R,5S)-3,3-difluoro-5-(3-methyl-4H-1,2,4-triazol-4-yl)cyclohexyl]-2-fluoro-4′-(trifluoromethoxy)biphenyl-4-sulfonamide]	1.4 nM
Cc1nncn1[C@@H]1CCC[C@H](NS(=O)(=O)c2ccc(-c3noc(C4CC4)n3)c(F)c2)C1 [Compound 2Fh, 4-(5-cyclopropyl-1,2,4-oxadiazol-3-yl)-3-fluoro-N-[(1S,3R)-3-(3-methyl-4H-1,2,4-triazol-4-yl)cyclohexyl]benzenesulfonamide]	9.9 nM
C=C(F)F.CCC(F)(F)c1nc(-c2ccc(S(=O)(=O)N[C@H]3CCC[C@@H](n4cnnc4)C3)c(C3CC3)c2)no1 [2 Kd, 2-cyclopropyl-4-[5-(1,1-difluoropropyl)-1,2,4-oxadiazol-3-yl]-N-[(1S,3R)-3-(4H-1,2,4-triazol-4-yl)cyclohexyl]benzenesulfonamide-1,1-difluoroethylene (1:1)]	8.9 nM
O=S(=O)(N[C@H]1CCC[C@@H](c2cccnc2)C1)c1ccc(-c2noc(C3CC3)n2)cc1 (relative stereo) [Compound 8e, 4-(5-cyclopropyl-1,2,4-oxadiazol-3-yl)-N-(3-pyridin-cis-3-ylcyclohexyl)benzenesulfonamide]	1.9 nM
CCc1cc(-c2ccc(OCC(F)(F)F)nc2)ccc1S(=O)(=O)N[C@@H]1C[C@H](n2cnnc2)CC(F)(F)C1 [Compound 2Cak, N-[(1R,5S)-3,3-difluoro-5-(4H-1,2,4-triazol-4-yl)cyclohexyl]-2-ethyl-4-[6-(2,2,2-trifluoroethoxy)pyridin-3-yl]benzenesulfonamide]	3.1 nM
Cc1nncn1[C@H]1C[C@@H](NS(=O)(=O)c2ccc(-c3ccc(OCC(F)(F)F)nc3)c(F)c2)CC(F)(F)C1 [Compound 2Hf, N-[(1R,5S)-3,3-difluoro-5-(3-methyl-4H-1,2,4-triazol-4-yl)cyclohexyl]-3-fluoro-4-[6-(2,2,2-trifluoroethoxy)pyridin-3-yl]benzenesulfonamide]	0.6 nM
CCc1cc(-c2cscn2)ccc1S(=O)(=O)N[C@H]1CCC[C@@H](n2cnnc2)C1 [Compound 2Aay, 2-ethyl-4-(1,3-thiazol-4-yl)-N-[(1S,3R)-3-(4H-1,2,4-triazol-4-yl)cyclohexyl]benzenesulfonamide]	69 nM
CCc1cc(-c2cccc(OC)c2)ccc1S(=O)(=O)N[C@H]1CCC[C@@H](n2cnnc2)C1 [Compound 2Ar, 3-ethyl-3′-methoxy-N-[(1S,3R)-3-(4H-1,2,4-triazol-4-yl)cyclohexyl]biphenyl-4-sulfonamide]	27 nM

Now from value to molecule:

IC50	Molecule
5.7 nM	CCc1cc(-c2ccc(OCC(F)(F)F)nn2)cc(S(=O)(=O)N[C@H]2CCC[C@@H](n3cnnc3)C2)c1 [Compound 3Bay, 3-ethyl-N-[(1S,3R)-3-(4H-1,2,4-triazol-4-yl)cyclohexyl]-5-[6-(2,2,2-trifluoroethoxy)pyridazin-3-yl]benzenesulfonamide]
42 nM	O=S(=O)(N[C@H]1CCC[C@@H](n2cnnc2)C1)c1cc(-c2ccn3ncnc3c2)cc(C(F)(F)F)c1 [Compound 3Aal, 3-[1,2,4]triazolo[1,5-a]pyridin-7-yl-N-[(1S,3R)-3-(4H-1,2,4-triazol-4-yl)cyclohexyl]-5-(trifluoromethyl)benzenesulfonamide]
4.1 nM	Cc1cn2nc(-c3cc(C(F)(F)F)cc(S(=O)(=O)N[C@H]4CCC[C@@H](n5cnnc5)C4)c3)ccc2n1 [Compound 3Aai, 3-(2-methylimidazo[1,2-b]pyridazin-6-yl)-N-[(1S,3R)-3-(4H-1,2,4-triazol-4-yl)cyclohexyl]-5-(trifluoromethyl)benzenesulfonamide]
4.6 nM	O=S(=O)(N[C@H]1CCC[C@@H](n2cnnc2)C1)c1cc(-c2cccc(F)n2)cc(C(F)(F)F)c1 [Compound 3Ax, 3-(6-fluoropyridin-2-yl)-N-[(1S,3R)-3-(4H-1,2,4-triazol-4-yl)cyclohexyl]-5-(trifluoromethyl)benzenesulfonamide]
3.9 nM	O=S(=O)(N[C@H]1CCC[C@@H](n2cnnc2)C1)c1cc(-c2cccc(F)c2)cc(C(F)(F)F)c1 [Compound 3As, 3′-fluoro-N-[(1S,3R)-3-(4H-1,2,4-triazol-4-yl)cyclohexyl]-5-(trifluoromethyl)biphenyl-3-sulfonamide]
2.7 nM	O=S(=O)(N[C@H]1CCC[C@@H](n2cnnc2)C1)c1cc(-c2cc(Cl)cn3ccnc23)cc(C(F)(F)F)c1 [Compound 3Aat, 3-(6-chloroimidazo[1,2-a]pyridin-8-yl)-N-[(1S,3R)-3-(4H-1,2,4-triazol-4-yl)cyclohexyl]-5-(trifluoromethyl)benzenesulfonamide]
5.4 nM	O=S(=O)(N[C@H]1CCC[C@@H](n2cnnc2)C1)c1cc(-c2ccccc2F)cc(C(F)(F)F)c1 [Compound 3At, 2′-fluoro-N-[(1S,3R)-3-(4H-1,2,4-triazol-4-yl)cyclohexyl]-5-(trifluoromethyl)biphenyl-3-sulfonamide]
9.2 nM	O=S(=O)(N[C@H]1CCC[C@@H](n2cnnc2)C1)c1cc(-c2ccsc2)cc(C(F)(F)F)c1 [Compound 3Aar, 3-(3-thienyl)-N-[(1S,3R)-3-(4H-1,2,4-triazol-4-yl)cyclohexyl]-5-(trifluoromethyl)benzenesulfonamide]
27 nM	O=S(=O)(N[C@H]1CCC[C@@H](n2cnnc2)C1)c1cc(-c2ccc3nc(C(F)(F)F)cn3n2)cc(C(F)(F)F)c1 [Compound 3Aaj, N-[(1S,3R)-3-(4H-1,2,4-triazol-4-yl)cyclohexyl]-3-(trifluoromethyl)-5-[2-(trifluoromethyl)imidazo[1,2-b]pyridazin-6-yl]benzenesulfonamide]
10 nM	O=S(=O)(N[C@H]1CCC[C@@H](n2cnnc2)C1)c1cc(OC(F)(F)F)cc(-c2ccccc2)c1 [Compound 3Ea, N-[(1S,3R)-3-(4H-1,2,4-triazol-4-yl)cyclohexyl]-5-(trifluoromethoxy)biphenyl-3-sulfonamide]
4.8 nM	Cc1nncn1[C@@H]1CCC[C@H](NS(=O)(=O)c2cc(-c3ccc(F)cc3)cc(C(F)(F)F)c2)C1 [Compound 3Ab, 4′-fluoro-N-[(1S,3R)-3-(3-methyl-4H-1,2,4-triazol-4-yl)cyclohexyl]-5-(trifluoromethyl)biphenyl-3-sulfonamide]
815 nM	CCc1cc(-n2cnnn2)ccc1S(=O)(=O)N[C@H]1CCC[C@@H](n2cnnc2)C1 [Compound 5a, 2-ethyl-4-(1H-tetrazol-1-yl)-N-[(1S,3R)-3-(4H-1,2,4-triazol-4-yl)cyclohexyl]benzenesulfonamide]
0.5 nM	CCOC(=O)c1cn2cc(Cl)cc(-c3cc(C(F)(F)F)cc(S(=O)(=O)N[C@H]4CCC[C@@H](n5cnnc5)C4)c3)c2n1 [Compound 3Aaw, ethyl 6-chloro-8-[3-({[(1S,3R)-3-(4H-1,2,4-triazol-4-yl)cyclohexyl]amino}sulfonyl)-5-(trifluoromethyl)phenyl]imidazo[1,2-a]pyridine-2-carboxylate]
0.9 nM	CCc1cc(-c2cccc3cccnc23)cc(S(=O)(=O)N[C@H]2CCC[C@@H](n3cnnc3)C2)c1 [Compound 3Bd, 3-ethyl-5-quinolin-8-yl-N-[(1S,3R)-3-(4H-1,2,4-triazol-4-yl)cyclohexyl]benzenesulfonamide]
